# Like-named read-outs stand apart in the source and are kept apart here. Ends that are not written are not given here.
# Columns and labels:
# pancreatic beta cells [1] = experiment: S661 repeated dosing in normal mice, BrdU incorporation by immunohistochemistry; format: in vivo, C57Bl/6 mice; conditions: 4 days
# Description: FIG. 12 is a bar graph showing beta cell replication after repeated dosing of S661 in the pancreas of normal mice. Increased replication is shown as a fold increase compared to vehicle rate. Replication was analyzed by immunohistochemistry. The control in these experiments is a vehicle without S661.
# In a study, S661 was administered subcutaneously in vehicle to C57Bl/6 mice 3 times daily at the following doses 1 mg/kg; 0.5 mg/kg; 0.25 mg/kg or 0.125 mg/kg bodyweight for a period of 4 days. In parallel BrdU was administered once daily at a dose of 100 mg/kg for the same period. At the fifth day the pancreas was removed and fixed in PFA. Paraffin embedded sections were stained for insulin, DAPI and BrdU. The incorporation of BrdU in replicating beta cells was analyzed using an automated script on images generated on a Zeiss Axioimager Z2.
# pancreatic beta cells [2] = experiment: S661 once daily in normal mice, beta cell replication by flow cytometry; format: in vivo, C57Bl/6 mice; conditions: S661 1 mg/kg s.c. once daily, 4 days
# Description: FIG. 13 is a bar graph showing beta cell replication after repeated dosing of S661 in normal mice. Increased beta cell replication with S661 treatment is shown as a percentage of replication. Replication was analyzed by flow cytometry. The control in these experiments is a vehicle without S661. (*** p<0.001; Student's T-Test)
# In another study, S661 was administered subcutaneously in vehicle to C57Bl/6 mice as once daily injections of 1 mg/kg bodyweight for a period of 4 days. In parallel BrdU was administered once daily at a dose of 100 mg/kg for the same period. At the fifth day the pancreas was removed and the replication of beta cell was measured by flow cytometry.
# pancreatic beta cells [3] = experiment: S661 repeated dosing in diet-induced obesity (DIO) mice, BrdU immunohistochemistry; format: in vivo, C57Bl/6 mice (DIO); conditions: S661 3 times 1 mg/kg or 0.125 mg/kg s.c., 4 days
# Description: Increased beta cell replication with S661 treatment is shown as percent replication; there was no effect on non-beta cell replication. […] Immunohistochemistry was performed to analyze replication and islet area. (* p<0.05; ** p<0.01; Student's T-Test)
# C57Bl/6 mice were fed a high fat diet for 17 weeks. S661 was administered subcutaneously in vehicle to DIO mice at doses of 3 times 1 mg/kg or 0.125 mg/kg bodyweight for a period of 4 days. In parallel BrdU was administered once daily at a dose of 100 mg/kg for the same period. At the fifth day the pancreas was removed and fixed in PFA. Paraffin embedded sections were stained for insulin, DAPI and BrdU. The incorporation of BrdU in replicating cells was analyzed using an automated script on images generated on a Zeiss Axioimager Z2.
# [4] = obese rats, previous reports; cited from earlier work
# pancreatic beta cells [5] = experiment: S961 treatment of mice, beta cell replication (Ki67/insulin immunostaining of pancreas); format: in vivo; conditions: 0.125 to 1 μMol/Kg/week, vs vehicle
# Source text: The white arrows point to replicating beta cells. FIG. 1C is a bar graph showing Ki67+/insulin+% after treatment for 7 days with increasing doses (from 0.125 μMol/Kg/week to 1 μMol/Kg/week) of S961. […] The control in these experiments is vehicle without S961. To count the Ki67+/insulin+ percentage and the beta cell area/pancreas area, the whole pancreas was cryosectioned and immunostained, and the standard graph analysis tools such as Metamorph and Photoshop were used for the quantification.
# As described herein, administration of a low dose of insulin receptor antagonist S961 to a mammal produces an increase in beta cell replication (FIG. 1). Following injection of S961, gene expression in liver, muscle, and fat was analyzed because these tissues are involved in carbohydrate storage and metabolism. Of particular interest as a result of this analysis was mouse gene EG624219.
# TD26 (EG624219) mRNA = experiment: TD26 mRNA expression in tissues of mice treated with S961 for 7 days; format: in vivo; conditions: liver and fat
# Source text: Genes close to the diagonal line show similar expression values in treated and untreated liver. […] TD26 expression increases in the liver and fat upon S961 treatment. […] The presumptive signal peptide is included at the N-terminus. […] Hepa1-6 cells have been transfected with a plasmid carrying the gene for TD26 fused to a Myc-tag. The cells were stained with myc antibody.
# [6] = Blood glucose levels after administration of S961; format: in vivo
# Source text: As used herein, low doses of S961 will typically be less than 1 μMol/Kg/week, preferably from 0.125 μMol/Kg/week to 0.5 μMol/Kg/week. However it will be understood that increased doses may be useful as well, particularly if utilized in conjunction with an anti-hyperglycemic agent.
Substance,increase in β-cell replication in comparison to vehicle (pancreatic beta cells [1]; S661 0.125 mg/kg s.c. 3 times daily),increase in β-cell replication in comparison to vehicle (pancreatic beta cells [1]; S661 1 mg/kg s.c. 3 times daily),increase in the percentage of beta cell replication as compared to vehicle (pancreatic beta cells [2]),beta cell replication (pancreatic beta cells [3]),islet area relative to total pancreas area (pancreatic beta cells [3]),non-beta cell replication (pancreatic beta cells [3]),blood glucose levels [4],beta cell replication (Ki67+/insulin+) (pancreatic beta cells [5]; treatment for 7 to 10 days),beta cell area/pancreas area (pancreatic beta cells [5]; treatment for 7 days),relative expression of TD26 mRNA (TD26 (EG624219) mRNA),blood glucose levels ([6]; increasing doses of S961),blood glucose levels ([6]; low doses of S961)
"S661: 43 amino acid peptide insulin receptor antagonist, SEQ ID NO: 16 (GSLDESFYDWFERQLGGGSGGSSLEEEWAQIQCEVWGRGCPSY), C-terminus is an amide (GSLDESFYDWFERQLGGGSGGSSLEEEWAQIQCEVWGRGCPSY-NH2; cysteine pairing not given here)",2 fold,5 fold,~5 fold,increased amount of beta cell replication,increased islet area relative to total pancreas area,does not increase non-beta cell replication,marked increase in blood glucose levels,–,–,–,–,–
"S961: 43 amino acid peptide insulin receptor antagonist, SEQ ID NO: 16 (GSLDESFYDWFERQLGGGSGGSSLEEEWAQIQCEVWGRGCPSY), C-terminus is an acid (GSLDESFYDWFERQLGGGSGGSSLEEEWAQIQCEVWGRGCPSY-OH; cysteine pairing not given here)",–,–,–,–,–,–,–,induces beta cell replication,significant increase,increases,blood glucose levels increase,does not increase blood glucose levels

# Source: patent US20140303078A1, “MODULATION OF PANCREATIC BETA CELL PROLIFERATION” (President and Fellows of Harvard College, priority 2011, published 2014)
